Experimental data from a melting point compilation (Tetko et al.; mined from patent text by program, amines drawn as free bases though some values may be those of a salt).

Row | melting point [°C] | SMILES
1 | 188 to 190 | O=C(O)c1ccc(NC(O)C(=O)c2ccc(OCC3CCCCC3)cc2)cc1 (stereo unspecified)
2 | 102 to 103 | COc1ccc(C(C#N)Cc2cc(OC)c(OC)c(OC)c2)cc1 (stereo unspecified)
3 | 33 to 34 | O=[N+]([O-])c1ccc(CF)cc1
4 | 105 to 106 | CC(C)(C)OC(=O)CON=C(C(=O)O)c1ccco1
5 | 141 | CCOc1nc(=O)n(C(=O)Nc2cccc(Cl)c2)s1
6 | 127 to 129 | CCCCOc1ccc(C=CC(=O)NCCN(O)C(N)=O)cc1
7 | 230 | CCCCc1[nH]c2ccc([N+](=O)[O-])cc2c1C(=O)c1ccc(O)cc1
8 | 204 to 205 | Cc1oc(-c2ccccc2)nc1COc1ccc(Cn2cc(C(=O)O)c(-c3cccs3)n2)cc1
9 | 241 to 244 | Cc1ccccc1C(=O)Nc1ccc(C(=O)N2Cc3ccnn3Cc3ccccc32)c(Cl)c1
10 | 79 | N#CCCCC(=O)c1cc2ccccc2o1
11 | 148 to 150 | COc1ccc(-c2cncc(C#N)c2Nc2ccc3[nH]ccc3c2)cc1Br
12 | 78 to 80 | CC(C)(C(=O)O)c1ccc(O[Si](C)(C)C(C)(C)C)cc1
13 | 160 to 161 | O=C(O)CCC(=NOCc1ccc(OCc2cn3c(-c4ccccc4)cccc3n2)cc1)c1ccccc1
14 | 190 | COc1ccc(-c2nc3cc(F)ccc3s2)cc1OC(=O)c1ccccc1Cl
15 | 148 to 149 | c1c(N2CCCC2)nc(N2CCCC2)nc1N1CCN(CCN2CCNCC2)CC1
16 | 104 to 106 | COC(=O)COc1ccc(-c2ccc(C(=O)O)cc2)cc1-c1ccc2c(c1)C(C)(C)CCC2(C)C
17 | 138 to 149 | CN1CCCC1=NC(=O)Nc1cccc(Br)c1
18 | 174 to 176 | CC1(C)Oc2ccc(C#N)cc2[C@@H](NC2=CC(=O)CC2)[C@@H]1O (relative stereo)
19 | 90 to 91 | O=[N+]([O-])c1ccc(OCc2ccc(F)cc2)cc1F
20 | 267 | O=Cc1ccc(-c2ccc3nc[nH]c(=O)c3c2)o1
21 | 148 to 150 | CCS(=O)(=O)c1ccc(S(=O)(=O)CC)nc1
22 | 103 | CC(C)(C)C(O)C(Cn1cncn1)Oc1ccc(Cl)cc1 (stereo unspecified)
23 | 234 to 236 | CN1C(=O)C2(COc3cc4c(cc32)OCCO4)c2c(NC(=O)C3CCC3)cccc21 (stereo unspecified)
24 | 115 to 116 | O=[N+]([O-])c1ccc(F)cc1Nc1ccc(F)cc1
25 | 206 to 208 | O=C(Nc1nccs1)c1nc(-c2cccc3ccccc23)[nH]c1-c1ccc(Cl)cc1

Row | melting point [°C] | SMILES
26 | 90 to 91 | COC(=O)c1ccccc1C1(c2ccccc2)OCC(CCl)O1 (stereo unspecified)
27 | 96 | CSc1nn(C(C)(C)C)c(=O)c(Cl)c1C1CCC(C(C)(C)C)CC1 (stereo unspecified)
28 | 294 to 295 | O=C(O)c1ccc(-c2coc(-c3ccc(C(F)(F)F)cc3)n2)cc1
29 | 144 to 145 | CC(=O)OC1CCC2(C)C(=CCC3C2CCC2(C)C(c4cccnc4)=CCC32)C1 (stereo unspecified)
30 | 305 to 307 | C(=Cc1cc2cc3ccccc3cc2s1)c1ccccc1
31 | 186 to 189 | c1ccc(Oc2cccc(Nc3nnc(Cc4ccncc4)c4ccccc34)c2)cc1
32 | 226 | CCOC(=O)c1c(C=O)c2c(Cl)cc(Cl)cc2n1S(=O)(=O)c1ccccc1
33 | 75 to 77 | COC(=O)c1cc(CCCNCc2ccccc2)ccc1OCc1ccccc1
34 | 261 | Cc1cc(C)c(C=NNC(=O)c2ccc(O)cc2)[nH]1
35 | 118 to 119 | CCC(=O)NC[C@H]1CN(c2ccc3c(c2)C[C@@H](C)N3C=O)C(=O)O1
36 | 203 to 205 | CCCc1ccc2oc(C(=O)c3ccncc3)c(C)c2c1O
37 | 225 | COc1cc(-c2ccc3cc4c(cc3c2C=O)OCO4)c([N+](=O)[O-])cc1OC
38 | > 250 | O=C1N=NC(=O)c2c1[nH]c1cc(Cl)ccc21
39 | 86 to 87.5 | Cc1cc(Br)ccc1C(=O)NCc1ccccn1
40 | 321 | COc1ccc(C(=O)Nc2cc(C(F)(F)F)c(Br)cc2S(N)(=O)=O)cc1
41 | 115 | COc1cccc(CN2N=C(c3ccc(OC)c(OC)c3)[C@@H]3CCCC[C@@H]3C2=O)c1 (relative stereo)
42 | > 280 | CN(C)N=C(N)Nc1c(Cl)cccc1Cl
43 | 92 to 94 | COC(=O)COc1ccc(SCc2cc(-c3ccc(Cl)cc3)no2)c2c1CCC2
44 | 120 to 122 | O=c1ccsn1CNc1ccc(Cl)c(Cl)c1
45 | 124 to 126 | COc1ccc2cc([C@H](C)C(=O)OCC(CO)(CO)[N+](=O)[O-])ccc2c1
46 | 109 to 110 | Cc1c(OCC(F)(F)F)ccnc1CSc1nc2cc(N3CCN(C)CC3)c(F)cc2[nH]1
47 | 229 to 234 | O=C(NC(=O)c1c(F)cccc1F)Nc1ccc(-c2ccc(Cl)cc2)cn1
48 | 120 to 122 | O=C1CCCN1C(=O)Oc1ccccc1
49 | 140 to 142 | Nc1ccccc1C(=O)NO
50 | 185 | N#Cc1ccccc1C=C1c2ccccc2CCc2ccccc21

Row | melting point [°C] | SMILES
51 | 119 to 120 | CC(=O)CN1CCc2ccc(C(=O)CCC(=O)N3CCC(c4ccc(Cl)cc4)CC3)cc2CC1
52 | 160 to 162 | OCC(O)Cc1c(OCc2ccccc2)ccc2ncccc12 (stereo unspecified)
53 | 148 to 150 | Cc1c(C)c(N2Cc3cc(Cl)c(Cl)cc3C2)c(C)c2c1OC(C)(C)C2c1ccc(C(C)C)cc1 (stereo unspecified)
54 | 135 to 136 | COC(=O)C1=C(C=O)NC(C)=C(P2(=O)OCCCO2)C1c1ccccc1[N+](=O)[O-] (stereo unspecified)
55 | > 290 | CCCn1c(=O)[nH]c(=S)c2[nH]c(C=Cc3ccccc3)nc21
56 | 172 to 174 | Cc1ccc(S(=O)(=O)C2(CC#Cc3ccc(Cl)cc3)SC(=O)NC2=O)cc1 (stereo unspecified)
57 | 74 to 75 | COc1ccc(C=C2SCCS2)cc1OC
58 | 63.5 to 64.5 | CCOC(=O)CCSC(CC)=NNC(N)=O
59 | > 250 | Cn1c(N=C=O)c(-c2ccccc2)c2cc([N+](=O)[O-])ccc21
60 | 254 to 256 | O=C(O)C1=CC=CC(C(=O)c2ccc(O)c(O)c2)(C(=O)c2ccc(O)c(O)c2)C1
61 | 67 to 69 | CCOC(=O)c1cc(F)c(SC)nc1NC1CC1
62 | 73 to 74.5 | O=C1c2ccccc2CN1CCCSc1ccncc1
63 | 111 to 113 | O=C(NCC/C=C\CCCNC(=O)c1ccc(OC(F)(F)F)cc1)c1ccc(OC(F)(F)F)cc1
64 | 74 to 76 | OCCCCCCC(O)C(c1ccc(Cl)cc1Cl)n1ccnc1 (stereo unspecified)
65 | 188 to 190 | COC(=O)C(Cc1ccccc1)Oc1ccc2cc(-c3cnc(-c4cn(Cc5ccccc5)c5ccccc45)o3)ccc2c1 (stereo unspecified)
66 | 102 to 103 | CC(C)(C)OC(=O)N[C@@H]1C(=O)N(C(=O)C(=O)OC(C)(C)C)[C@@H]1CCC(=O)CO[Si](C)(C)C(C)(C)C
67 | 110 to 111 | OC(CCc1cccnc1)COc1ccc(C=Cc2ccccc2)cc1 (stereo unspecified)
68 | 122 to 127 | COC(=O)C(Cc1cccc(OCC(=O)O)c1)c1nc(-c2ccccc2)c(-c2ccccc2)o1 (stereo unspecified)
69 | > 250 | CNC(=O)c1c(O)c(=O)cc(C)n1C
70 | 113 to 114 | CC(c1cccnc1)C(O)(Cn1cncn1)c1ccc(F)cc1F (stereo unspecified)
71 | 130 to 136 | Cc1ccc(S(=O)(=O)NCC(O)(Cn2cncn2)c2ccc(F)cc2F)cc1 (stereo unspecified)
72 | 66 to 68 | COc1ccc(CSc2cc(Cl)ccc2CN(C)C)cc1
73 | 43 to 46 | O=C=Nc1cc([N+](=O)[O-])c(Cl)cc1F
74 | 228 to 230 | N#Cc1ccc2[nH]c(O)c(-c3ccc(CN4CCOCC4)cn3)c2c1
75 | 143 to 145 | Cc1nc2c(C#N)cnn2c(Cl)c1CCCl

Row | melting point [°C] | SMILES
76 | 189 to 192 | CCC(CC)(COc1nn2ncnc2cc1C)CS(N)(=O)=O
77 | 269 to 271 | CCOC(=O)c1cc(/C=C/c2ccc(O)cc2)ccc1O
78 | 113 to 114 | Nc1ccc(Cl)n2nc(SCc3ccccc3)nc12
79 | 200 to 201 | COC(=O)C(C)(C)c1ccc(C(=O)Nc2cn3cc(-c4ccsc4)ccc3n2)cc1
80 | 114 to 115 | CCCCN(CCCC)c1ccc(C=C(S(C)(=O)=O)S(C)(=O)=O)cc1
81 | 254 | C=CCN1CCN(C(=O)OC2C3=C(OCCS3)C(=O)N2c2ccc3ccc(Cl)nc3n2)CC1 (stereo unspecified)
82 | 205 to 208 | O=C(O)CCC(=O)c1ccc(Oc2ccc(NC(=O)c3ccc(Cl)c(Cl)c3)cc2F)cc1
83 | 86 to 87.5 | CCCCCCCCCCCCCCCCCC(=O)N1CC(O)C1
84 | 167 to 170 | CCc1cc(-c2ccc(-c3ccn(C)n3)cc2)ccc1OC
85 | 163 | CCCCCCCCOc1ccc(-c2cnc(C(=O)O)c(C(=O)O)n2)cc1
86 | 193 to 195 | CCN1c2cc(N)ccc2N(C)C(=O)c2cccnc21
87 | 106 to 108 | CCOC(=O)CN1C(=O)[C@@H](N)CCc2ccccc21
88 | 145 to 146 | NCCOc1ccc2[nH]c3ccccc3c2c1
89 | 223 to 224 | COc1cc(C(=O)N(C2CCCC2)C2CCCC2)ccc1Cn1cccc2ncnc1-2
90 | 219 to 222 | CC(=O)Nc1ccccc1CN1CCC(CCC(=O)c2ccc(Nc3ncnc4c3CCC4)cc2)CC1
91 | 112 to 113 | CN(C)CCNC(=O)Cc1ccc2ccn(C3CCN(CCc4ccc(F)cc4)CC3)c2c1
92 | 89 to 90 | CCOC(=O)Cc1ccccc1Oc1ccc(COc2cc(CC)nc3c2CCCC3)cc1
93 | 158 to 159 | Cc1nc(C)c(C(=O)Nc2ccc(-n3nc(C(F)(F)F)cc3C(F)(F)F)cc2)s1
94 | 113 | COc1ccc(-c2c(C(=O)Cl)sc3ccccc23)cc1OC
95 | 104 to 106 | CC(=O)c1ccc(S(=O)(=O)N2CCCC(CO)C2)cc1 (stereo unspecified)
96 | 155 to 156 | Cc1ccc(S(=O)(=O)c2ccccc2[N+](=O)[O-])cc1
97 | 108 to 110 | CC(NC(=O)OCc1ccccc1)P(C)(=O)OCc1ccccc1 (stereo unspecified)
98 | 242 to 243 | CCc1noc(-c2cn(-c3nc[nH]n3)cn2)n1

Row | SMILES | melting point [°C]
99 | COc1cc2c(cc1OC)N(C)C(=O)CN=C2c1cccc(C=O)c1 | 175 to 178
100 | COc1cc2c(cc1OC)C(c1c[nH]cn1)CCC2 (stereo unspecified) | 140
101 | COc1cc(C(=O)C2C(=O)N(C)C(=O)N(C)C2=O)ccc1Oc1nc2ccccc2s1 | 210 to 211
